Source: US9199928B2, “Fluorescent dye for pH sensor” (SARTORIUS STEDIM BIOTECH GMBH, priority 2011, dated 2015)

Compound: NC(CCCCNS(=O)(=O)c1cc(S(=O)(=O)NCCCCC(N)C(=O)O)c2ccc3c(O)cc(O)c4ccc1c2c43)C(=O)O (stereo not shown)
- melting point: 210 to 212 °C (dec.)
